The assay has as its system patients with nocturnal leg muscle cramps. Nature of the assay: Topically applied nitroglycerin (transdermal patch) in ten patients with nocturnal leg muscle cramps. Type of assay: in vivo, human. The text has this:
The following Examples show the successful use of topically applied nitroglycerin in treating ten patients with nocturnal leg muscle cramps.

Here are results for one compound from patent US20050095278A1, “Use of nitroglycerin to relieve nocturnal muscle cramps” (priority 2003, published 2005).

The structures appear in SMILES notation.

For `O=[N+]([O-])OCC(CO[N+](=O)[O-])O[N+](=O)[O-]` [nitroglycerin], the “relief in the frequency and severity of nocturnal muscle cramping (summary of the ten patients)” value (small amounts of nitroglycerin, even once daily) was “moderate to significant relief”. For the same compound, the “relieving pain and cramping associated with nocturnal muscle cramps (observation)” value (topically applied by a transdermal patch to the lower extremity) was “effective in relieving pain and cramping”. Moreover, where the note is “transdermal delivery at a rate of about 0.1 mg/hr”, the “relief of pain and cramping associated with muscle cramps (early studies)” value is “sufficient for relief of pain and cramping”.
